Calls of active or inactive are those of the source. The rule behind the calls is not given here.
Key:
[1] = tested on: Human immunodeficiency virus 1; test: Anti-HIV activity against wild type HIV-1 IIIB infected in human MT4 cells assessed as protection against virus-induced cytopathic effect incubated for 5 days by spectrophotometric based MTT assay; type: functional, organism-based; conditions: Human immunodeficiency virus 1, IIIB, MT4, 120 h
[2] = biological target: Structural capsid protein (Human immunodeficiency virus 1) (UniProt Q76129); test: Binding affinity to HIV-1 hexameric capsid protein assessed as reduction in CPSF6 binding to capsid protein by competition assay based SPR analysis; conditions: filed as modulator
Sequence of Structural capsid protein (Human immunodeficiency virus 1) (Q76129 as listed by the source): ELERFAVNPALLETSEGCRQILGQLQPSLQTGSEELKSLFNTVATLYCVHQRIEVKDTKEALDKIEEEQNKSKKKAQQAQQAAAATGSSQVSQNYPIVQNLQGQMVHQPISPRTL

[3] = Metabolic stability in human liver microsomes assessed as half life at 1 uM incubated for 60 mins by LC-MS/MS analysis; type: ADME, Microsome
[4] = Selectivity index, ratio of CC50 for human MT4 cells to EC50 for wild type HIV-1 IIIB infected in human MT4 cells; type: toxicity, cell-based; conditions: read-out: Selectivity Index
MT4 = test: Cytotoxicity against human MT4 cells assessed as reduction in cell viability incubated for 5 days by spectrophotometric based MTT assay; type: functional; conditions: MT4, 120 h, time 5 day
[5] = biological target: Human immunodeficiency virus type 1 reverse transcriptase (Human immunodeficiency virus 1) (UniProt Q72547); test: Inhibition of HIV1 reverse transcriptase at 24 nM incubated for 1 hr by ELISA analysis
[6] = biological target: T1, Structural capsid protein (Human immunodeficiency virus 1, UniProt Q76129); test: Binding affinity to hexameric HIV-1 NL4.3 capsid protein assessed as dissociation constant by SPR assay
T1 sequence (Q76129 whole entry): as the sequence (Q76129 as listed by the source) above

[7] = Selectivity index, ratio of CC50 for human MT4 cells to EC50 for HIV-2 ROD infected in human MT-4 cells; type: toxicity, cell-based; conditions: read-out: Selectivity Index
[8] = tested on: Human immunodeficiency virus 1; test: Antiviral activity against pseudotyped HIV-1 expressing luciferase-reporter transfected in HEK293T cells assessed as increase in p24 level in progeny virions by ELISA analysis; type: functional, organism-based
[9] = tested on: Human immunodeficiency virus 1; test: Antiviral activity against pseudotyped HIV-1 expressing luciferase-reporter transfected in HEK293T cells assessed as viral inhibition at early stage incubated for 48 hrs by Single-round infection assay; type: functional, organism-based
[10] = Metabolic stability in human liver microsomes assessed as intrinsic clearance at 1 uM incubated for 60 mins by LC-MS/MS analysis; type: ADME, Microsome; conditions: read-out: CLH
[11] = biological target: T1, Structural capsid protein; test: Binding affinity to monomeric HIV-1 NL4.3 capsid protein assessed as dissociation constant by SPR assay
[12] = tested on: Human immunodeficiency virus 1; test: Antiviral activity against pseudotyped HIV-1 expressing luciferase-reporter transfected in HEK293T cells assessed as viral inhibition at late stage incubated for 48 hrs by Single-round infection assay; type: functional, organism-based
[13] = biological target: Structural capsid protein (Human immunodeficiency virus 1) (UniProt Q76129); test: Binding affinity to HIV-1 hexameric capsid protein assessed as reduction in NUP153 binding to capsid protein by competition assay based SPR analysis; conditions: filed as modulator
[14] = tested on: Human immunodeficiency virus 2; test: Anti-HIV activity against HIV-2 ROD infected in human MT-4 cells assessed as protection against virus-induced cytopathic effect incubated for 5 days by spectrophotometric based MTT assay; type: functional, organism-based; conditions: Human immunodeficiency virus 2, ROD, MT4, 120 h
[15] = Selectivity ratio of EC50 for wild type HIV-1 IIIB infected in human MT4 cells to EC50 for HIV-2 ROD infected in human MT-4 cells assessed as protection against virus-induced cytopathic effect incubated for 5 days by spectrophotometric based MTT assay; type: functional; conditions: time 5 day
[16] = biological target: Structural capsid protein (Human immunodeficiency virus 1) (UniProt Q76129); test: Binding affinity to monomeric HIV-1 NL4.3 capsid protein assessed as residence time by SPR assay; conditions: filed as modulator
[17] = biological target: Structural capsid protein (Human immunodeficiency virus 1) (UniProt Q76129); test: Binding affinity to hexameric HIV-1 NL4.3 capsid protein assessed as residence time by SPR assay; conditions: filed as modulator
[18] = biological target: Structural capsid protein (Human immunodeficiency virus 1) (UniProt Q76129); test: Binding affinity to monomeric HIV-1 NL4.3 capsid protein assessed as dissociation rate (Koff) by SPR assay; conditions: filed as modulator
[19] = biological target: Structural capsid protein (Human immunodeficiency virus 1) (UniProt Q76129); test: Binding affinity to hexameric HIV-1 NL4.3 capsid protein assessed as dissociation rate (Koff) by SPR assay; conditions: filed as modulator
[20] = biological target: Human immunodeficiency virus type 1 reverse transcriptase (Human immunodeficiency virus 1) (UniProt Q72547); conditions: dose 10.0 nM, time 1.0 hrs

| Structure (SMILES) | EC50 [1] [nM] | selectivity ratio [4] | CC50 (MT4) [nM] | selectivity ratio [7] | EC50 [14] [nM] | Ratio EC50 [15] | further results |
| --- | --- | --- | --- | --- | --- | --- | --- |
| CN(C(=O)[C@H](Cc1cc(F)cc(F)c1)NC(=O)Cc1c[nH]c2ccc(N)cc12)c1ccc2scnc2c1 | 11.9 | 16100 | 192000 | 831 | 231 | 0.05 | Activity [2]: Active; half-life at 1 µM [3]: 1.14 h; inhibition [5]: inactive; Kd [6]: 94.5 nM; Activity [8]: inactive; Activity [9]: Active; CLint scaled at 1 µM [10]: 20.2 mL/min/kg; Kd [11]: 196 nM; Activity [12]: Active; Activity [13]: Active |
| CN(C(=O)[C@H](Cc1cc(F)cc(F)c1)NC(=O)Cc1c[nH]c2cccc(F)c12)c1ccc2scnc2c1 | 53.6 | 439 | 23500 | 47.3 | 498 | 0.11 | – |
| CN(C(=O)[C@H](Cc1cc(F)cc(F)c1)NC(=O)Cc1c[nH]c2cc(Cl)ccc12)c1ccc2scnc2c1 | 37.1 | 669 | 24800 | 197 | 126 | 0.29 | – |
| CN(C(=O)[C@H](Cc1cc(F)cc(F)c1)NC(=O)Cc1c[nH]c2ccc(Br)cc12)c1ccc2scnc2c1 | 32.6 | 718 | 23400 | 137 | 171 | 0.19 | – |
| COc1ccc(N(C)C(=O)[C@H](Cc2ccccc2)NC(=O)CN2CCN(S(=O)(=O)c3ccc(N)cc3)CC2=O)cc1 | – | – | 114000 | – | 13.6 | – | TIME [16]: 0.00118 h; TIME [17]: 0.0138 h; K [18]: 2.34 10^-1/s; CLint scaled at 1 µM [10]: 344 mL/min/kg; K [19]: 2.01 10^-2/s |
| CN(C(=O)[C@H](Cc1cc(F)cc(F)c1)NC(=O)Cc1c[nH]c2ccccc12)c1ccc2scnc2c1 | 39.6 | 842 | 33400 | 153 | 218 | 0.18 | – |
| Cc1cc(C)n(CC(=O)N[C@@H](Cc2cc(F)cc(F)c2)C(=O)N(C)c2ccc3scnc3c2)n1 | 269 | > 962 | > 259000 | > 84.5 | 3060 | 0.09 | – |
| CN(C(=O)[C@H](Cc1cc(F)cc(F)c1)NC(=O)Cc1c[nH]c2ccc(F)cc12)c1ccc2scnc2c1 | 10.1 | 2510 | 25500 | 177 | 144 | 0.07 | – |
| CN(C(=O)[C@H](Cc1cc(F)cc(F)c1)NC(=O)Cc1c[nH]c2cc(Br)ccc12)c1ccc2scnc2c1 | 27.4 | 848 | 23300 | 339 | 68.6 | 0.4 | – |
| Cc1cc(/C=C/C#N)cc(C)c1Nc1ccnc(Nc2ccc(C#N)cc2)n1 | – | – | – | – | – | – | inhibition [20]: Active |
| CN(C(=O)[C@H](Cc1cc(F)cc(F)c1)NC(=O)Cc1c[nH]c2ccc(Cl)cc12)c1ccc2scnc2c1 | 16.3 | 1450 | 23700 | 150 | 158 | 0.1 | – |
| COc1ccc2[nH]cc(CC(=O)N[C@@H](Cc3cc(F)cc(F)c3)C(=O)N(C)c3ccc4scnc4c3)c2c1 | 22.4 | 3260 | 73200 | 460 | 159 | 0.14 | – |
| Cc1[nH]c2ccccc2c1CC(=O)N[C@@H](Cc1cc(F)cc(F)c1)C(=O)N(C)c1ccc2scnc2c1 | 270 | 108 | 29100 | 32.8 | 887 | 0.3 | – |
